This is an account of results in patent publication US11957687B2 (REGENERON PHARMACEUTICALS, INC., priority 2019, dated 2024).

Series [1] addresses HSD17B13 (Homo sapiens (Human), UniProt Q7Z5P4). As to the kind of experiment: HSD17B13 enzymatic inhibition assay (150 nM or 50 nM HSD17B13). In kind it is biochemical. The note with it: 50 nM HSD17B13; read-out: Inhibition of 50 nM of HSD17B13 IC50.
Series [2] has as its target HSD17B2 (Homo sapiens (Human), UniProt P37059). Put plainly: HSD17B2 enzymatic blocking assay. The format is biochemical. The note with it: 1.8 μM Estradiol, 650 μM NAD; read-out: Inhibition of HSD17B2 IC50. How it is done: To screen compounds of the disclosure for their ability to block HSD17B2 function, an enzymatic blocking assay was performed. For the assay, HSD17B2 activity was measured by detecting NADH formation from oxidation of Estradiol using a NADH Glo luminescence assay (Promega, #Cat. No. G9062). Compounds of the disclosure were evaluated in a dose titration assay where the compounds were titrated at 10-point dose curve using an Echo-555 liquid handling dispenser. HSD17B2 (SEQ ID NO: 3, expressed in mammalian cells) was added at a final concentration of 2 ng/μL in a buffer containing 50 mM Tris-HCl, pH 7.5, Pluronic F-127 0.05%, Tween20 0.01%, BSA 0.01% into a low volume white 384-well assay plate. Compounds were incubated with the enzyme for 15 min at 20° C. The assay reaction was then initiated by addition of 1.8 μM Estradiol substrate (Sigma, catalog #E2758-250MG, CAS: 50-28-2) and 650 μM NAD co-factor, and the reaction mixture was incubated for 45 min at 20° C. DMSO at a concentration of 0.5% was used as a negative control and a ‘no substrate’ control was used a positive control in the assay. Detection reagent was then added as per manufacturer's instructions, and the plate was subsequently incubated in the dark for 1 hour at room temperature, NADH generated was detected in the luminescence mode on the Envision Perkin Elmer plate reader. The IC50 values were determined using Dotmatics analysis software.

Series [3] can be described thus: Microsome stability assay, human liver microsomes. The format is in vitro ADME. The note with it: 1 μM compound, 0.5 mg/mL microsomal protein; for microsomal CLint at 1 h, 1 µM / half-life at 1 h, 1 µM / microsomal CLint at 1 μM / half-life at 1 μM: human, human liver microsomes, pooled, NADPH, 37° C.; for microsomal CLint at 1 h, 1 µM / microsomal CLint at 1 μM: read-out: Microsome Stability Human liver microsomes Cl; for half-life at 1 h, 1 µM / half-life at 1 μM: read-out: Microsome Stability Human liver microsomes T½. A digest of the protocol: (§1)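 Compound at 1 μM incubated at 37° C with pooled human or mouse liver microsomes (0.5 mg/mL protein) plus NADPH regenerating system, sampled at 0–60 min; a 60-min no-NADPH incubation also included. Single replicate; LC/MS/MS disappearance from analyte/internal standard peak area ratios, without standard curve.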
A general note: Liver microsomes are a subcellular fraction often used to study metabolism.

The nature of series [4]: Microsome stability assay, mouse liver microsomes. The format is in vitro ADME. Conditions: 1 μM compound, 0.5 mg/mL microsomal protein; for microsomal CLint at 1 h, 1 µM / half-life at 1 h, 1 µM: mouse, mouse liver microsomes, pooled, NADPH, 37° C.; for microsomal CLint at 1 h, 1 µM: read-out: Microsome Stability Mouse liver microsomes Cl; for half-life at 1 h, 1 µM: read-out: Microsome Stability Mouse liver microsomes T½. A digest of the protocol:
as §1

The structures appear in SMILES notation. A value given as a limit tells only on which side of the number the result lay.

HSD17B2, sequence (P37059 other isoform, or with tags, fused parts or gaps): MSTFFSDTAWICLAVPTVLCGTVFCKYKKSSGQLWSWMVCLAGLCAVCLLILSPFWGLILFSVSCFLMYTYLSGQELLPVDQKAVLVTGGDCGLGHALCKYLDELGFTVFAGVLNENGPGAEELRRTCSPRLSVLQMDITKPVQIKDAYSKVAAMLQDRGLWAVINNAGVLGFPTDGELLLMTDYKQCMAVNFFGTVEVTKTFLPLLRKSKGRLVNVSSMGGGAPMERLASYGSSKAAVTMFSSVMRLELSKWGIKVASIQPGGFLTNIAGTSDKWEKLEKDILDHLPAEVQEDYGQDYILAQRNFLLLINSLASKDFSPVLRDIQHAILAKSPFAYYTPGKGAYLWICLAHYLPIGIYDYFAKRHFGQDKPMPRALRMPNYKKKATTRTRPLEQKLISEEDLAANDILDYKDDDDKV
HSD17B13, sequence (Q7Z5P4 other isoform, or with tags, fused parts or gaps): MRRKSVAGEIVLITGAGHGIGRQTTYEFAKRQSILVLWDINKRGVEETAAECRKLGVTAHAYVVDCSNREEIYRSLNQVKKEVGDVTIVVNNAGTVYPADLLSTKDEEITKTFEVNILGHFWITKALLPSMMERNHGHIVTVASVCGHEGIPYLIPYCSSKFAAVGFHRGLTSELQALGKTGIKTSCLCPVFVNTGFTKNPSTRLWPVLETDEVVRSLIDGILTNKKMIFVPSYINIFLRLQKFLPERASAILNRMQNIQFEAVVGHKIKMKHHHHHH

The IC50 is the concentration that gives 50% inhibition. With `O=C(NC1c2ccccc2Oc2ccccc21)c1ccc(C(F)(F)F)[nH]c1=O` [Compound 1A, 2-oxo-6-(trifluoromethyl)-N-(9H-xanthen-9-yl)-1,2-dihydropyridine-3-carboxamide], the IC50 in series [1] stood at 530 nM. For the same compound, in series [2], the IC50 amounted to 14500 nM. For the same compound, in series [3], the “Microsome Stability Human liver microsomes % Remaining @60 min” value is 1.00%; the microsomal CLint at 1 h, 1 µM is 176 µL/min/mg; the half-life at 1 h, 1 µM worked out at 7.87 min.

As for `C=Cc1ccc(C(NC(=O)c2ccc(C(F)(F)F)[nH]c2=O)c2ccccc2)cc1` (stereo not drawn) [Compound 3A, 2-oxo-N-(phenyl(4-vinylphenyl)methyl)-6-(trifluoromethyl)-1,2-dihydropyridine-3-carboxamide], the figures for the IC50 in series [1] and in series [2] were 1300 nM and 13200 nM, respectively.

On to `CCc1ccc(C(NC(=O)c2ccc(C(F)(F)F)[nH]c2=O)c2ccccc2)cc1` (stereo not drawn) [Compound 4A, N-((4-ethylphenyl)(phenyl)methyl)-2-oxo-6-(trifluoromethyl)-1,2-dihydropyridine-3-carboxamide], for which the IC50 in series [1] turned out to be 550 nM. Also, in series [2], the IC50 was 11600 nM. Besides, in series [3], the “Microsome Stability Human liver microsomes % Remaining @60 min” value is reported as 1.12%; the microsomal CLint at 1 h, 1 µM amounted to 156 µL/min/mg; the half-life at 1 h, 1 µM was 8.86 min.

Take `O=C(NC(c1ccccc1)c1ccc(CC(F)(F)F)cc1)c1ccc(C(F)(F)F)[nH]c1=O` (stereo not drawn) [Compound 12, 2-oxo-N-(phenyl(4-(2,2,2-trifluoroethyl)phenyl)methyl)-6-(trifluoromethyl)-1,2-dihydropyridine-3-carboxamide]: in series [4], the “Microsome Stability Mouse liver microsomes % Remaining @60 min” value was determined as 56.90%; the microsomal CLint at 1 h, 1 µM was 18.6 µL/min/mg; the half-life at 1 h, 1 µM was 74.5 min. The IC50 in series [1] stood at 390 nM. The IC50 in series [2] worked out at 15600 nM. Besides, in series [3], the “Microsome Stability Human liver microsomes % Remaining @60 min” value came to 84.70%, the microsomal CLint at 1 μM is below 9.6 µL/min/mg and the half-life at 1 μM is above 145 min.

As to `O=C(NC(c1ccc(C(F)(F)F)cc1)c1ccc(C(F)(F)F)cc1)c1ccc(C(F)(F)F)[nH]c1=O` [Compound 14, N-(bis(4-(trifluoromethyl)phenyl)methyl)-2-oxo-6-(trifluoromethyl)-1,2-dihydropyridine-3-carboxamide], the half-maximal inhibitory concentration (IC50) in series [1] was 2810 nM. The 50% inhibitory concentration (IC50) in series [2] worked out at 14200 nM. In series [3], the “Microsome Stability Human liver microsomes % Remaining @60 min” value was 100.00%, the microsomal CLint at 1 μM was below 9.6 µL/min/mg and the half-life at 1 μM is above 145 min.

With `O=C(NC(c1ccccc1)c1ccc(O)cc1)c1ccc(C(F)(F)F)[nH]c1=O` (stereo not drawn) [Compound 19, N-((4-hydroxyphenyl)(phenyl)methyl)-2-oxo-6-(trifluoromethyl)-1,2-dihydropyridine-3-carboxamide], in series [1], the half-inhibitory concentration (IC50) is 1910 nM. Moreover, the concentration for half-maximal inhibition (IC50) in series [2] came out at 33600 nM. Further, in series [3], the “Microsome Stability Human liver microsomes % Remaining @60 min” value is 49.80%; the microsomal CLint at 1 h, 1 µM is 20.2 µL/min/mg; the half-life at 1 h, 1 µM was 68.6 min.

Turning to `O=C(NC(Cc1ccccc1)c1ccc(Cl)cc1)c1ccc(C(F)(F)F)[nH]c1=O` (stereo not drawn) [Compound 19A, N-(1-(4-chlorophenyl)-2-phenylethyl)-2-oxo-6-(trifluoromethyl)-1,2-dihydropyridine-3-carboxamide], the IC50 in series [1] came out at 990 nM. In series [2], the IC50 is 13200 nM. In addition, in series [3], the “Microsome Stability Human liver microsomes % Remaining @60 min” value is 8.05%; the microsomal CLint at 1 h, 1 µM came out at 88.6 µL/min/mg; the half-life at 1 h, 1 µM was found to be 15.6 min.

For the compound `COc1ccc(C(C)(NC(=O)c2ccc(C(F)(F)F)[nH]c2=O)c2ccc(OC)cc2)cc1` [Compound 20A, N-(1,1-bis(4-methoxyphenyl)ethyl)-2-oxo-6-(trifluoromethyl)-1,2-dihydropyridine-3-carboxamide], the half-inhibitory concentration (IC50) in series [1] was 1560 nM; in series [2], 2270 nM.

`O=C(NC(c1ccc(OC(F)F)cc1)c1ccc(OC(F)F)cc1)c1ccc(C(F)(F)F)[nH]c1=O` [Compound 22, N-(bis(4-(difluoromethoxy)phenyl)methyl)-2-oxo-6-(trifluoromethyl)-1,2-dihydropyridine-3-carboxamide]: the IC50 came to 890 nM in series [1] and 12800 nM in series [2].

Regarding `COc1ccc(C(NC(=O)c2ccc(C(F)(F)F)[nH]c2=O)c2ccc(OC)cc2)cc1` [Compound 24, N-(bis(4-methoxyphenyl)methyl)-2-oxo-6-(trifluoromethyl)-1,2-dihydropyridine-3-carboxamide], the IC50 in series [1] is 600 nM. In series [2], the IC50 worked out at 20600 nM. For the same compound, in series [3], the “Microsome Stability Human liver microsomes % Remaining @60 min” value was 2.00%; the microsomal CLint at 1 h, 1 µM worked out at 131 µL/min/mg; the half-life at 1 h, 1 µM is 10.6 min.

As to `COc1ccc(C(NC(=O)c2ccc(C(F)(F)F)[nH]c2=O)c2ccccc2)cc1` (stereo not drawn) [Compound 26, N-((4-methoxyphenyl)(phenyl)methyl)-2-oxo-6-(trifluoromethyl)-1,2-dihydropyridine-3-carboxamide], the half-maximal inhibitory concentration (IC50) in series [1] came out at 1200 nM. Further, the IC50 in series [2] stood at 22600 nM. Further, in series [3], the “Microsome Stability Human liver microsomes % Remaining @60 min” value is recorded as 16.00%; the microsomal CLint at 1 h, 1 µM was 62.4 µL/min/mg; the half-life at 1 h, 1 µM turned out to be 22.2 min.

Take `O=C(NC(c1ccccc1)c1ccc(C(F)(F)F)cc1)c1ccc(C(F)(F)F)[nH]c1=O` (stereo not drawn) [Compound 28, N-(phenyl(4-(trifluoromethyl)phenyl)methyl)-2-oxo-6-(trifluoromethyl)-1,2-dihydropyridine-3-carboxamide]: in series [1], the IC50 turned out to be 1300 nM. Moreover, the IC50 in series [2] is 12600 nM. Moreover, in series [3], the “Microsome Stability Human liver microsomes % Remaining @60 min” value was 94.00%, the microsomal CLint at 1 μM is below 9.6 µL/min/mg and the half-life at 1 μM was above 145 min.

With `Cc1ccc2c(c1)-c1cc(C)ccc1C2NC(=O)c1ccc(C(F)(F)F)[nH]c1=O` [Compound 43, N-(3,6-dimethyl-9H-fluoren-9-yl)-2-oxo-6-(trifluoromethyl)-1,2-dihydropyridine-3-carboxamide], the IC50 in series [1] worked out at 490 nM. For the same compound, the half-inhibitory concentration (IC50) in series [2] was found to be 6590 nM. In series [3], the “Microsome Stability Human liver microsomes % Remaining @60 min” value turned out to be 31.30%; the microsomal CLint at 1 h, 1 µM came to 39.8 µL/min/mg; the half-life at 1 h, 1 µM was 34.8 min.

For the compound `O=C(NC1c2ccc(F)cc2-c2cc(F)ccc21)c1ccc(C(F)(F)F)[nH]c1=O` [Compound 44, N-(3,6-difluoro-9H-fluoren-9-yl)-2-oxo-6-(trifluoromethyl)-1,2-dihydropyridine-3-carboxamide], the results for the IC50 in series [1] and in series [2] were 530 nM and 12800 nM, respectively.

Take `COc1ccc2c(c1)-c1cc(OC)ccc1C2NC(=O)c1ccc(C(F)(F)F)[nH]c1=O` [Compound 46, N-(3,6-dimethoxy-9H-fluoren-9-yl)-2-oxo-6-(trifluoromethyl)-1,2-dihydropyridine-3-carboxamide]: the IC50 in series [1] was found to be 1070 nM; in series [2] it was 38100 nM.

Turning to `O=C(NC1CCc2ccccc21)c1ccc(C(F)(F)F)[nH]c1=O` (stereo not drawn) [Compound 63, N-(2,3-dihydro-1H-inden-1-yl)-2-oxo-6-(trifluoromethyl)-1,2-dihydropyridine-3-carboxamide], the IC50 was 3680 nM in series [1] and above 100000 nM in series [2].

For `Cc1ccc(C(CC2CCC2)NC(=O)c2ccc(C(F)(F)F)[nH]c2=O)cc1` (stereo not drawn) [Compound 557, N-(2-cyclobutyl-1-(p-tolyl)ethyl)-2-oxo-6-(trifluoromethyl)-1,2-dihydropyridine-3-carboxamide], in series [4], the “Microsome Stability Mouse liver microsomes % Remaining @60 min” value was 65%; the microsomal CLint at 1 h, 1 µM is 14.4 µL/min/mg; the half-life at 1 h, 1 µM amounted to 96.3 min. Further, the 50% inhibitory concentration (IC50) in series [1] turned out to be 140 nM. Further, in series [3], the “Microsome Stability Human liver microsomes % Remaining @60 min” value turned out to be 1%; the microsomal CLint at 1 h, 1 µM came to 437 µL/min/mg; the half-life at 1 h, 1 µM is 3.17 min.
